Experimental data from the supplement of paper PMC10627819.

How the values were obtained:
S. pneumoniae D39V [1] = experiment: fitness (endpoint OD595 vs no drug) (fraction); higher = more growth
Method in brief: (§1)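 Background-subtracted growth curves were the basis for fitness, taken as the optical density at entry into stationary phase over the robust mean of no-drug control wells. A cap of 1 was applied. The curves came from OD595 readings every 30 min for 14 h at 37 °C, in 384-well plates seeded at OD595 0.01 with 30 µl, or 55 µl for S. pneumoniae.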

B. subtilis 168 [2] = experiment: as above
Method in brief: as §1

S. pneumoniae D39V [3] = experiment: Bliss interaction score (quartile over a dose matrix) (fitness difference); higher = more antagonism (negative = synergy)
Method in brief: (§2)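 Combination data were used to infer fitness under each single drug. Fitness is the OD595 at entry into stationary phase divided by the robust mean of the plate's no-drug wells, with a cap of 1. The Bliss score is the observed minus the expected product fitness, summarised by quartiles over technical, biological and donor/recipient replicates.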

B. subtilis 168 [4] = experiment: as above
Method in brief: as §2

S. aureus DSM 20231 = experiment: as above
Method in brief: as §2

S. aureus Newman = experiment: as above
Method in brief: as §2
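Wherever Bliss interaction score (quartile over a dose matrix) is given: first quartile when negative (synergy) and third quartile when positive (antagonism).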

C[C@H]1COc2c(N3CCN(C)CC3)c(F)cc3c(=O)c(C(=O)O)cn1c23 [Levofloxacin] + CC(=O)NC[C@H]1CN(c2ccc(N3CCOCC3)c(F)c2)C(=O)O1 [Linezolid]
Conditions	fitness
B. subtilis 168 [2], first compound 0.002 µg/mL, partner 0.125 µg/mL	0.696
B. subtilis 168 [2], first compound 0.0039 µg/mL, partner 0.125 µg/mL	0.683
B. subtilis 168 [2], first compound 0.0312 µg/mL, partner 0.125 µg/mL	0.0311
B. subtilis 168 [2], first compound 0.0312 µg/mL, partner 0.25 µg/mL	0.0424
B. subtilis 168 [2], first compound 0.0312 µg/mL, partner 0.5 µg/mL	0.045
B. subtilis 168 [2], first compound 0.0625 µg/mL, partner 0.125 µg/mL	0.0397
B. subtilis 168 [2], first compound 0.0625 µg/mL, partner 0.25 µg/mL	0.0517
B. subtilis 168 [2], first compound 0.0625 µg/mL, partner 0.5 µg/mL	0.0516
B. subtilis 168 [2], first compound 0.125 µg/mL, partner 0.125 µg/mL	0.0523
B. subtilis 168 [2], first compound 0.125 µg/mL, partner 0.25 µg/mL	0.0524
B. subtilis 168 [2], first compound 0.125 µg/mL, partner 0.5 µg/mL	0.0424
S. pneumoniae D39V [1], first compound 0.1725 µg/mL, partner 0.2 µg/mL	0.848
S. pneumoniae D39V [1], first compound 0.1725 µg/mL, partner 0.4 µg/mL	0.669
S. pneumoniae D39V [1], first compound 0.1725 µg/mL, partner 0.8 µg/mL	0.333
S. pneumoniae D39V [1], first compound 0.2 µg/mL, partner 0.105 µg/mL	0.81
S. pneumoniae D39V [1], first compound 0.2 µg/mL, partner 0.21 µg/mL	0.694
S. pneumoniae D39V [1], first compound 0.2 µg/mL, partner 0.42 µg/mL	0.568
S. pneumoniae D39V [1], first compound 0.345 µg/mL, partner 0.2 µg/mL	0.777
S. pneumoniae D39V [1], first compound 0.345 µg/mL, partner 0.4 µg/mL	0.591
S. pneumoniae D39V [1], first compound 0.345 µg/mL, partner 0.8 µg/mL	0.295
S. pneumoniae D39V [1], first compound 0.4 µg/mL, partner 0.105 µg/mL	0.72
S. pneumoniae D39V [1], first compound 0.4 µg/mL, partner 0.21 µg/mL	0.652
S. pneumoniae D39V [1], first compound 0.4 µg/mL, partner 0.42 µg/mL	0.506
S. pneumoniae D39V [1], first compound 0.69 µg/mL, partner 0.2 µg/mL	0.555
S. pneumoniae D39V [1], first compound 0.69 µg/mL, partner 0.4 µg/mL	0.323
S. pneumoniae D39V [1], first compound 0.69 µg/mL, partner 0.8 µg/mL	0.196
S. pneumoniae D39V [1], first compound 0.8 µg/mL, partner 0.105 µg/mL	0.449
S. pneumoniae D39V [1], first compound 0.8 µg/mL, partner 0.21 µg/mL	0.351
S. pneumoniae D39V [1], first compound 0.8 µg/mL, partner 0.42 µg/mL	0.284

fitness, B. subtilis 168 [2], one replicate
Conditions	first compound 0.001 µg/mL	first compound 0.002 µg/mL	first compound 0.0039 µg/mL	first compound 0.0078 µg/mL
partner 0.0625 µg/mL	–	0.886	0.846	0.862
partner 0.125 µg/mL	0.82	–	–	0.615
partner 0.25 µg/mL	0.66	–	–	0.0853
partner 0.5 µg/mL	0.0709	0.0326	0.0626	–

Conditions	Bliss interaction score
B. subtilis 168 [4]	0.0633
S. aureus DSM 20231	0.0666
S. aureus Newman	0.0972
S. pneumoniae D39V [3]	0.0612
